Where a name gives a salt, the structure may show the parent alone.
Key:
[1] = molecular target: T1, human RORγt ligand binding domain (RORγt LBD) (Homo sapiens, UniProt P51449); assay: RORγt ThermoFluor assay (thermal shift, ligand binding affinity); conditions: estimated from concentration response of thermal shift
T1 construct: His-tag (N); TurboTEV protease cleavage site (ENLYFQG) (N); made in house; host or cells: E. coli (pHIS1, modified pET vector)
T1 sequence (P51449 with tags, fused parts or gaps): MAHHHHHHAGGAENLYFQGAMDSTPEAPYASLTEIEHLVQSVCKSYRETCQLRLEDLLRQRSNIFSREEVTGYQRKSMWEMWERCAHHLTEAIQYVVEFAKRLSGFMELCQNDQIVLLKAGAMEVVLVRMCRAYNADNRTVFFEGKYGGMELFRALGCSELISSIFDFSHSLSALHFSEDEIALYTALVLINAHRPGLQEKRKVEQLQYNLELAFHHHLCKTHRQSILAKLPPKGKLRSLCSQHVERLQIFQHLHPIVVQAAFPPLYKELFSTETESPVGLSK
How it was run: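 Thermal shift of 0.065 mg/mL RORγt with 60 μM 1,8-ANS in 100 mM Hepes pH 7.0, 10 mM NaCl, 2.5 mM GSH, 0.002% Tween-20. Compounds in 1:2 series from 10 mM DMSO stock. Dye fluorescence (500 nm emission) tracked versus temperature; ΔTm used to derive KD.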

[2] = molecular target: T2, human RORγt LBD (Homo sapiens, UniProt P51449); assay: RORγt reporter assay (GAL4-RORγt LBD luciferase in HEK293T cells); format: cell-based; conditions: for IC50: HEK293T cells, 24 hours compound treatment; for inhibition at 6 µM: HEK-293T, read-out: RORγt reporter Assay, % inhibition @ 6 μM, HEK293T cells, 6 μM compound
T2 construct: expressed in transfected cells
T2 sequence (P51449 258-518): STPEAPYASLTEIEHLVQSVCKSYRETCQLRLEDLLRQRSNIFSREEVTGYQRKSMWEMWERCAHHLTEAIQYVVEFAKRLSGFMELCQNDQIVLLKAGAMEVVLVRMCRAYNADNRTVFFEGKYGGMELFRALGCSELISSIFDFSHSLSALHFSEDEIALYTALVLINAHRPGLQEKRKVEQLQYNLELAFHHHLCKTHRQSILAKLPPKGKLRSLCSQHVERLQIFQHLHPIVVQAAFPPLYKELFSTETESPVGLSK
How it was run: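 Read-out is the firefly-to-renilla luciferase ratio versus compound concentration, after 24 h compound exposure of cells in phenol-red-free DMEM/5% lipid-reduced FCS. Cells were HEK293T bulk-transfected with a GAL4-responsive firefly reporter (pGL4.31) and GAL4 DBD–wild-type human RORγt LBD fusion (pBIND, renilla as transfection/viability control).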

| SMILES | Kd [1] | IC50 [2] | inhibition at 6 µM [2] |
| --- | --- | --- | --- |
| Cn1ccnc1C(O)(c1ccnnc1)c1ccc2nc(Cl)c(-c3ccccc3)c(Cl)c2c1 (stereo not drawn) [Example 121, (2,4-Dichloro-3-phenylquinolin-6-yl)(1-methyl-1H-imidazol-2-yl)(pyridazin-4-yl)methanol] | 1700 nM | ~2000 nM | 72% |
| Cn1ccnc1C(O)(c1ccc2nc(Cl)c(-c3ccccc3)c(Cl)c2c1)c1cnccn1 (stereo not drawn) [Example 123, (2,4-Dichloro-3-phenylquinolin-6-yl)(1-methyl-1H-imidazol-2-yl)(pyrazin-2-yl)methanol] | 2200 nM | ~6000 nM | 70% |
| Cc1noc(C)c1C(O)(c1ccc(Cl)cc1)c1ccc2nc(Cl)c(-c3ccccc3)c(Cl)c2c1 (stereo not drawn) [Example 133, (4-Chlorophenyl)(2,4-dichloro-3-phenylquinolin-6-yl)(3,5-dimethylisoxazol-4-yl)methanol•TFA] | 1500 nM | > 6000 nM | 41% |
| COCCCn1cncc1C(O)(c1ccc(Cl)cc1)c1ccc2nc(Cl)c(-c3ccccc3)c(Cl)c2c1 (stereo not drawn) [Example 147, (4-Chlorophenyl)(2,4-dichloro-3-phenylquinolin-6-yl)(1-(3-methoxypropyl)-1H-imidazol-5-yl)methanol] | 1100 nM | 1300 nM | 97% |
| OC(c1ccc(Cl)cc1)(c1cccnc1)c1ccc2nc(-c3cccnc3)c(-c3ccccc3)c(Cl)c2c1 (stereo not drawn) [Example 151, (4-Chloro-3-phenyl-2-(pyridin-3-yl)quinolin-6-yl)(4-chlorophenyl)(pyridin-3-yl)methanol] | 5000 nM | 2200 nM | 85% |

These reach a lower Kd [1]. Values come first.

| Kd [1] | IC50 [2] | inhibition at 6 µM [2] | SMILES |
| --- | --- | --- | --- |
| 610 nM | 740 nM | 104% | N#Cc1nc2ccc(C(O)(c3ccc(C(F)(F)F)nc3)c3cccc(Cl)c3)cc2c(C#N)c1-c1ccccc1 (stereo not drawn) [Example 114, 6-{(3-Chlorophenyl)(hydroxy) [6-(trifluoromethyl)pyridin-3-yl]methyl}-3-phenylquinoline-2,4-dicarbonitrile] |
| 360 nM | 370 nM | 94% | Cn1cncc1C(O)(c1ccc2nc(C(F)(F)F)c(-c3ccccc3)c(C#N)c2c1)c1ccccn1 (stereo not drawn) [Example 118, 6-(Hydroxy(1-methyl-1H-imidazol-5-yl)(pyridin-2-yl)methyl)-3-phenyl-2-(trifluoromethyl)quinoline-4-carbonitrile•TFA] |
| 650 nM | 1000 nM | 66% | Cn1ccnc1C(O)(c1cncnc1)c1ccc2nc(Cl)c(-c3ccccc3)c(Cl)c2c1 (stereo not drawn) [Example 125, (2,4-Dichloro-3-phenylquinolin-6-yl)(1-methyl-1H-imidazol-2-yl)(pyrimidin-5-yl)methanol] |
| 21 nM | 220 nM | 97% | Cn1cncc1C(O)(c1ccnnc1)c1ccc2nc(Cl)c(-c3ccccc3)c(Cl)c2c1 (stereo not drawn) [Example 126, (2,4-Dichloro-3-phenylquinolin-6-yl)(1-methyl-1H-imidazol-5-yl)(pyridazin-4-yl)methanol] |
| 990 nM | 1600 nM | 88% | COC(c1ccc2nc(Cl)c(-c3ccccc3)c(Cl)c2c1)(c1cnccn1)c1cncn1C (stereo not drawn) [Example 127, 2,4-Dichloro-6-(methoxy(1-methyl-1H-imidazol-5-yl)(pyrazin-2-yl)methyl)-3-phenylquinoline•TFA] |
| 260 nM | 520 nM | 102% | Cn1nncc1C(O)(c1ccc(Cl)cc1)c1ccc2nc(Cl)c(-c3ccccc3)c(Cl)c2c1 (stereo not drawn) [Example 144, (4-Chlorophenyl)(2,4-dichloro-3-phenylquinolin-6-yl)(1-methyl-1H-1,2,3-triazol-5-yl)methanol] |
| 77 nM | 130 nM | 112% | Cc1nc2cc(C(O)(c3ccc4nc(Cl)c(-c5ccccc5)c(Cl)c4c3)c3cncn3C)ccc2o1 (stereo not drawn) [Example 146, (2,4-Dichloro-3-phenylquinolin-6-yl)(1-methyl-1H-imidazol-5-yl)(2-methylbenzo[d]oxazol-5-yl)methanol] |

Source: US9309222B2, “Phenyl linked quinolinyl modulators of RORγt” (Janssen Pharmaceutica NV, priority 2012, dated 2016)
